The NIST ThermoML archive (doi:10.1021/je060271a)
Several values for one entry are separate records, joined by “and”; a condition that tells them apart may be missing. Equal entries are not always repeated. Numbers after ± are expanded uncertainties.

Details: 303.16 K, Liquid, Vibrating tube method

CCCCCC(=O)OCC(COC(=O)CCCCC)(COC(=O)CCCCC)COC(=O)CCCCC [pentaerythritol tetrahexanoate]
Details | mass density
243.6 kPa | 988.4 ± 1.2 kg/m3
243.8 kPa | 988.7 ± 1.2 kg/m3
244.8 kPa | 988.5 ± 1.2 kg/m3 and 988.6 ± 1.2 kg/m3
245.2 kPa | 988.4 ± 1.2 kg/m3 and 988.6 ± 1.2 kg/m3
245.3 kPa | 988.5 ± 1.2 kg/m3
245.5 kPa | 988.5 ± 1.2 kg/m3
245.9 kPa | 988.5 ± 1.2 kg/m3 and 988.6 ± 1.2 kg/m3
246.2 kPa | 988.5 ± 1.2 kg/m3
246.6 kPa | 988.5 ± 1.2 kg/m3
246.7 kPa | 988.4 ± 1.2 kg/m3
247.3 kPa | 988.6 ± 1.2 kg/m3 and 988.5 ± 1.2 kg/m3
247.4 kPa | 988.4 ± 1.2 kg/m3
248.5 kPa | 988.5 ± 1.2 kg/m3
248.8 kPa | 988.5 ± 1.2 kg/m3
249.2 kPa | 988.4 ± 1.2 kg/m3
249.3 kPa | 988.6 ± 1.2 kg/m3
250.7 kPa | 988.5 ± 1.2 kg/m3
251.1 kPa | 988.4 ± 1.2 kg/m3
251.2 kPa | 988.6 ± 1.2 kg/m3
251.4 kPa | 988.5 ± 1.2 kg/m3
251.6 kPa | 988.5 ± 1.2 kg/m3
251.9 kPa | 988.5 ± 1.2 kg/m3
252.1 kPa | 988.5 ± 1.2 kg/m3
252.3 kPa | 988.5 ± 1.2 kg/m3
252.5 kPa | 988.6 ± 1.2 kg/m3
252.6 kPa | 988.4 ± 1.2 kg/m3
252.8 kPa | 988.6 ± 1.2 kg/m3
253 kPa | 988.4 ± 1.2 kg/m3
253.5 kPa | 988.5 ± 1.2 kg/m3
253.7 kPa | 988.4 ± 1.2 kg/m3
254 kPa | 988.5 ± 1.2 kg/m3
254.2 kPa | 988.5 ± 1.2 kg/m3
254.6 kPa | 988.4 ± 1.2 kg/m3
254.7 kPa | 988.5 ± 1.2 kg/m3
255.1 kPa | 988.6 ± 1.2 kg/m3
255.2 kPa | 988.6 ± 1.2 kg/m3
255.4 kPa | 988.5 ± 1.2 kg/m3
255.6 kPa | 988.5 ± 1.2 kg/m3
255.9 kPa | 988.5 ± 1.2 kg/m3
256.3 kPa | 988.5 ± 1.2 kg/m3
256.5 kPa | 988.5 ± 1.2 kg/m3
256.6 kPa | 988.5 ± 1.2 kg/m3
257 kPa | 988.6 ± 1.2 kg/m3 and 988.5 ± 1.2 kg/m3
257.3 kPa | 988.6 ± 1.2 kg/m3
257.5 kPa | 988.5 ± 1.2 kg/m3
257.8 kPa | 988.6 ± 1.2 kg/m3 and 988.5 ± 1.2 kg/m3
258 kPa | 988.5 ± 1.2 kg/m3
258.4 kPa | 988.4 ± 1.2 kg/m3
258.5 kPa | 988.5 ± 1.2 kg/m3
258.7 kPa | 988.5 ± 1.2 kg/m3
259.1 kPa | 988.7 ± 1.2 kg/m3
259.4 kPa | 988.6 ± 1.2 kg/m3 and 988.5 ± 1.2 kg/m3
259.6 kPa | 988.6 ± 1.2 kg/m3
259.8 kPa | 988.5 ± 1.2 kg/m3
260.1 kPa | 988.5 ± 1.2 kg/m3
260.3 kPa | 988.6 ± 1.2 kg/m3
260.4 kPa | 988.4 ± 1.2 kg/m3
260.8 kPa | 988.5 ± 1.2 kg/m3 and 988.4 ± 1.2 kg/m3
261.1 kPa | 988.5 ± 1.2 kg/m3
261.3 kPa | 988.6 ± 1.2 kg/m3
261.8 kPa | 988.5 ± 1.2 kg/m3
262.5 kPa | 988.4 ± 1.2 kg/m3 and 988.5 ± 1.2 kg/m3
262.7 kPa | 988.5 ± 1.2 kg/m3
263.1 kPa | 988.5 ± 1.2 kg/m3
263.2 kPa | 988.6 ± 1.2 kg/m3 and 988.5 ± 1.2 kg/m3
263.7 kPa | 988.5 ± 1.2 kg/m3
264.1 kPa | 988.5 ± 1.2 kg/m3
264.3 kPa | 988.5 ± 1.2 kg/m3
264.4 kPa | 988.6 ± 1.2 kg/m3 and 988.5 ± 1.2 kg/m3
265 kPa | 988.6 ± 1.2 kg/m3
265.1 kPa | 988.5 ± 1.2 kg/m3
265.3 kPa | 988.5 ± 1.2 kg/m3
265.7 kPa | 988.5 ± 1.2 kg/m3
266.2 kPa | 988.6 ± 1.2 kg/m3
266.3 kPa | 988.5 ± 1.2 kg/m3
266.4 kPa | 988.5 ± 1.2 kg/m3 and 988.6 ± 1.2 kg/m3
266.7 kPa | 988.5 ± 1.2 kg/m3 and 988.6 ± 1.2 kg/m3
266.9 kPa | 988.6 ± 1.2 kg/m3
267.1 kPa | 988.6 ± 1.2 kg/m3
267.4 kPa | 988.4 ± 1.2 kg/m3
267.7 kPa | 988.6 ± 1.2 kg/m3
267.9 kPa | 988.5 ± 1.2 kg/m3
268.3 kPa | 988.5 ± 1.2 kg/m3
268.6 kPa | 988.5 ± 1.2 kg/m3 and 988.4 ± 1.2 kg/m3
268.8 kPa | 988.5 ± 1.2 kg/m3
269 kPa | 988.4 ± 1.2 kg/m3
269.1 kPa | 988.5 ± 1.2 kg/m3
270 kPa | 988.5 ± 1.2 kg/m3
270.2 kPa | 988.5 ± 1.2 kg/m3
270.7 kPa | 988.6 ± 1.2 kg/m3
271 kPa | 988.6 ± 1.2 kg/m3
271.2 kPa | 988.5 ± 1.2 kg/m3
271.4 kPa | 988.6 ± 1.2 kg/m3
271.6 kPa | 988.6 ± 1.2 kg/m3
272.1 kPa | 988.6 ± 1.2 kg/m3 and 988.5 ± 1.2 kg/m3
272.4 kPa | 988.6 ± 1.2 kg/m3
274.2 kPa | 988.6 ± 1.2 kg/m3
274.7 kPa | 988.6 ± 1.2 kg/m3 and 988.5 ± 1.2 kg/m3
275 kPa | 988.5 ± 1.2 kg/m3
275.2 kPa | 988.5 ± 1.2 kg/m3
275.6 kPa | 988.5 ± 1.2 kg/m3
275.7 kPa | 988.6 ± 1.2 kg/m3
275.9 kPa | 988.5 ± 1.2 kg/m3
276.1 kPa | 988.4 ± 1.2 kg/m3
276.4 kPa | 988.6 ± 1.2 kg/m3
276.8 kPa | 988.4 ± 1.2 kg/m3 and 988.5 ± 1.2 kg/m3
277.3 kPa | 988.5 ± 1.2 kg/m3
277.5 kPa | 988.5 ± 1.2 kg/m3
277.6 kPa | 988.5 ± 1.2 kg/m3
278 kPa | 988.6 ± 1.2 kg/m3
278.2 kPa | 988.5 ± 1.2 kg/m3
278.3 kPa | 988.6 ± 1.2 kg/m3
279 kPa | 988.4 ± 1.2 kg/m3 and 988.5 ± 1.2 kg/m3
279.2 kPa | 988.5 ± 1.2 kg/m3
279.5 kPa | 988.6 ± 1.2 kg/m3
279.9 kPa | 988.6 ± 1.2 kg/m3
280.2 kPa | 988.5 ± 1.2 kg/m3
280.6 kPa | 988.5 ± 1.2 kg/m3
280.8 kPa | 988.6 ± 1.2 kg/m3
280.9 kPa | 988.6 ± 1.2 kg/m3
281.3 kPa | 988.5 ± 1.2 kg/m3
281.8 kPa | 988.5 ± 1.2 kg/m3
282 kPa | 988.6 ± 1.2 kg/m3
282.3 kPa | 988.6 ± 1.2 kg/m3
282.5 kPa | 988.6 ± 1.2 kg/m3
282.7 kPa | 988.5 ± 1.2 kg/m3
283.2 kPa | 988.5 ± 1.2 kg/m3
283.5 kPa | 988.6 ± 1.2 kg/m3
283.7 kPa | 988.5 ± 1.2 kg/m3
283.9 kPa | 988.6 ± 1.2 kg/m3
284.9 kPa | 988.6 ± 1.2 kg/m3
285.3 kPa | 988.4 ± 1.2 kg/m3
285.6 kPa | 988.6 ± 1.2 kg/m3
286.1 kPa | 988.5 ± 1.2 kg/m3 and 988.6 ± 1.2 kg/m3
286.5 kPa | 988.6 ± 1.2 kg/m3
287 kPa | 988.6 ± 1.2 kg/m3
287.2 kPa | 988.6 ± 1.2 kg/m3
287.5 kPa | 988.5 ± 1.2 kg/m3
287.9 kPa | 988.5 ± 1.2 kg/m3
288.6 kPa | 988.5 ± 1.2 kg/m3
289.8 kPa | 988.5 ± 1.2 kg/m3
290.7 kPa | 988.5 ± 1.2 kg/m3
291 kPa | 988.6 ± 1.2 kg/m3
291.5 kPa | 988.5 ± 1.2 kg/m3
291.7 kPa | 988.6 ± 1.2 kg/m3
